Measured values taken from US20260345612A1, “THERAPEUTIC COMBINATIONS COMPRISING UBIQUITIN-SPECIFIC-PROCESSING PROTEASE 1 (USP1) INHIBITORS AND PARP1-SELECTIVE INHIBITORS” (KSQ Therapeutics, Inc., priority 2022, published 2026).

Key:
[1] = test system: olaparib resistant patient-derived breast xenograft; test: Anti-tumor activity in olaparib resistant patient-derived breast xenograft model in nude mice; format: in vivo, Athymic nude mice
Source text: Example 1: Anti-Tumor Activity of Formula I Co-Crystal in Combination with the Selective PARP1 Inhibitor, AZD5305, in a Patient-Derived Breast Xenograft Model in Nude Mice
The USP1 inhibitor employed in the examples is the co-crystal described above in paragraphs and [0143]-[0155]. This co-crystal can be prepared as described in Example 6 of Published PCT WO2022/094096. The Formula I co-crystal is a co-crystal of gentisic acid and 6-(4-cyclopropyl-6-methoxypyrimidin-5-yl)-1-(4-(1-isopropyl-4-(trifluoromethyl)-1H-imidazol-2-yl)benzyl)-1H-pyrazolo[3,4-d]pyrimidine.
Anti-tumor activity of the USP1 inhibitor of Formula I co-crystal in combination with AZD5305 was evaluated in mice using an olaparib resistant patient-derived breast xenograft model in nude mice, as shown in FIGS. 1A through 1C. 6-9 week old female Athymic nude mice from Envigo were anesthetized, and a 20 mm^3 tumor fragment was placed subcutaneously via incision in the flank. When tumors established to a tumor volume ranging from 63 to 196 mm^3, mice were randomized into groups of 10 and were assigned into the following groups: control, Formula I (100 mg/kg), AZD5305 (10 mg/kg) or Formula I (100 mg/kg) and AZD5305 (10 mg/kg) in combination. […] Body weight and tumor volume were measured twice per week. Tumor volume was calculated as mean and standard error of the mean for each treatment group.

[2] = test system: breast xenograft tumors with resistance to AZD5305 monotherapy; test: Combination activity in mice with tumors resistant to PARP inhibitors (AZD5305 monotherapy); format: in vivo, Athymic nude mice; conditions: from day 49, 5 mice resistant to AZD5305 monotherapy; Formula I (100 mg/kg) and AZD5305 (10 mg/kg); FIG. 1B
Experimental: Anti-tumor activity of the USP1 inhibitor of Formula I co-crystal in combination with AZD5305 was evaluated in mice using an olaparib resistant patient-derived breast xenograft model in nude mice, as shown in FIGS. 1A through 1C. 6-9 week old female Athymic nude mice from Envigo were anesthetized, and a 20 mm^3 tumor fragment was placed subcutaneously via incision in the flank. When tumors established to a tumor volume ranging from 63 to 196 mm^3, mice were randomized into groups of 10 and were assigned into the following groups: control, Formula I (100 mg/kg), AZD5305 (10 mg/kg) or Formula I (100 mg/kg) and AZD5305 (10 mg/kg) in combination. Compound was administered via oral gavage once daily for at least 42 days dependent upon the treatment group. Body weight and tumor volume were measured twice per week. Tumor volume was calculated as mean and standard error of the mean for each treatment group.

SMILES	resistance to AZD5305 monotherapy ([1]; AZD5305 (10 mg/kg) monotherapy, oral once daily, day 49, 5 mice)	anti-tumor activity compared to equivalent doses of the single agents ([1]; Formula I (100 mg/kg) and AZD5305 (10 mg/kg), oral gavage once daily, at least 42 days, FIG. 1A)	tumor volume after addition of Formula I, compared to remaining animals on AZD5305 monotherapy [2]
CCc1cc2ncc(CN3CCN(c4ccc(C(=O)NC)nc4)CC3)cc2[nH]c1=O [AZD5305, 5-[4-[(7-ethyl-6-oxo-5H-1,5-naphthyridin-3-yl)methyl]piperazin-1-yl]-N-methylpyridine-2-carboxamide, reference compound]	demonstrated resistance		
COc1ncnc(C2CC2)c1-c1ncc2cnn(Cc3ccc(-c4nc(C(F)(F)F)cn4C(C)C)cc3)c2n1 [Formula I, 6-(4-cyclopropyl-6-methoxypyrimidin-5-yl)-1-(4-(1-isopropyl-4-(trifluoromethyl)-1H-imidazol-2-yl)benzyl)-1H-pyrazolo[3,4-d]pyrimidine]		enhances antitumor activity of AZD5305	decrease in tumor volume
